The record followed here is patent publication US20240391904A1, “DIHYDROPYRIMIDINE BASED COMPOUND, PREPARATION METHOD THEREFOR AND USE OF THEREOF” (CHENGDU SHIBEIKANG BIOMEDICAL TECHNOLOGY CO., LTD., priority 2021, published 2024).

What is called IC50 is the midpoint of a concentration-inhibition curve. Low readings indicate greater potency in that assay, high ones weaker potency in that assay.

One data set has as its system SD rats. The data set can be described thus: Taste disorder test (quinine water versus tap water intake). Format: in vivo, rat. To be noted: for effect on the taste sense: 10 mg/kg intravenously, quinine/tap water ratio compared with vehicle group; for Quinine/tap water (%): 10 mg/kg tail intravenous injection, 0-15 min after administration, 0.3 mM quinine hydrochloride water versus tap water. How it is done:
Compounds of Examples 1, 9, 12, 15, 16, 24 (synthesized in the laboratory of the present inventor), the positive control drug (gefapixant, batch No: 01030-210326-2-1, purchased from Holder Pharmaceuticals).
0.9% sodium chloride solution for injection, quinine hydrochloride (Quinie, batch No: C12476271)
Healthy adult SD rats, all males, weighing about 280-300 g.
Preparation of 0.3 mM quinine solution: 119.20 mg of quinine hydrochloride was weighed and dissolved in 1000 ml of tap water, and mixed evenly.
Preparation of the test sample solution: 40 mg of a test sample was dissolved in DMSO and a solution of the solubilizer HS-15 was added, mixed evenly, and 16 ml of saline was added to formulate a 2.5 mg/ml solution.
Animal and grouping: male SD rats weighed about 160-180 g each, with 10 of a similar average weight in each group, were housed in seperate cages.
Drinking habit training: each group was given normal drinking water for 30 minutes at 8:30 am and 16:30 pm every day, and no access of water for the rest of the day for 5 days, and two bottles of water were changed every day at the left and right positions.
Administration: with no access to water the night before the experiment, in the following morning the test group was given 4 mL/kg (10 mg/kg) of the test sample by tail intravenous injection, and the model group was given 4 mL/kg (10 mg/kg) of 0.5% HS-15 by intravenous injection.
The animals were allowed to drink freely for 15 min, and the amount of water consumed from the two bottles was measured to the nearest 0.1 ml.
(2) Statistical analysis of the data: the drinking volume of the quinine bitter water and tap water were recorded separately, as well as the percentage of quinine water to the tap water, and the significance of the difference between the groups was determined by ANOVA.

The subject of another data set is KM mice. The data set can be described thus: Mouse cough test (ammonia-induced coughing). Format: in vivo. To be noted: for cough suppressing effect compared with the positive compound / duration of the cough suppression action: 30 mg/kg; for Number of Coughs (time): mice; for reduction in the number of coughs at 3 mg/kg: compared with model group; for duration of the cough suppression action: 30 to 120 min after administration. The text has this:
Compounds of Example 1-24 (synthesized in the inventor's laboratory), positive control drug (gefapixant, batch No: 01030-210326-2-1, purchased from Holder Pharmaceuticals), the compound of Comparative Example 1 (synthesized in the inventor's laboratory).
Healthy adult KM mice, half of them are male and half of them are female, 6 per group, weighing about 28-30 g.
Most of the animal coughing models currently reported in the literatures use mechanical, chemical and electrical stimulations to stimulate the nerves and receptors of the animals to trigger coughing. According to the characteristics of the candidate compounds and the existing similar target compounds for reference, the method of concentrated ammonia induction was initially chosen to establish the cough modeling test in mice.
Preparation of 50% ammonia solution: 2.5 ml of ammonia was dissolved in […] of a 0.9% sodium chloride solution for injection and mixed evenly.
Preparation of a solution of the compound of Comparative Example 1: 9 mg of the compound of Comparative Example 1 was weighed and dissolved in 3 ml of a 0.5% CMC-Na solution, and mixed evenly to prepare a 3 mg/ml solution.
Preparation of a solution of the example compounds: 9 mg of the example compound was weighed and dissolved in 3 ml of a 0.5% CMC-Na solution, and mixed evenly to prepare a 3 mg/ml solution.
Grouping: a positive control group, a Comparative Example 1 group, Example 1 group-Example 24 group, and a model group were set up. Six KM mice were taken from each group and administered by gavage; here, the Comparative Example 1 group was given the compound of Comparative Example 1, the positive control group was given the positive control drug (gefapixant, commercially purchased), the Example groups were given the compounds prepared in the corresponding Examples, with each group given one of three dosages: 30 mg/kg, […], and 3 mg/kg; and the model group was given the same volume of 0.5% CMC-Na solution.
30 min, 60 min or 120 min after administration, the mice were placed in a 500 ml beaker with a cotton ball (weight 100±5 mg) containing 0.3 ml of 50% ammonia.
(1) Judgment criteria of coughing: coughing was manifest in contraction of abdominal muscles or chest contraction, with mouth wide opening and a coughing sound.
(2) The number of coughs (times) within 3 min was recorded with a stopwatch, and the data were statistically analyzed by software, with the data in each group shown in mean±standard deviation. A one-way analysis of variance among the groups was conducted, and P<0.05 was considered a difference having a statistical significance.

The next data set has as its target T1, human P2X3 receptor (Homo sapiens, UniProt P56373).
T1 sequence (P56373 1-397): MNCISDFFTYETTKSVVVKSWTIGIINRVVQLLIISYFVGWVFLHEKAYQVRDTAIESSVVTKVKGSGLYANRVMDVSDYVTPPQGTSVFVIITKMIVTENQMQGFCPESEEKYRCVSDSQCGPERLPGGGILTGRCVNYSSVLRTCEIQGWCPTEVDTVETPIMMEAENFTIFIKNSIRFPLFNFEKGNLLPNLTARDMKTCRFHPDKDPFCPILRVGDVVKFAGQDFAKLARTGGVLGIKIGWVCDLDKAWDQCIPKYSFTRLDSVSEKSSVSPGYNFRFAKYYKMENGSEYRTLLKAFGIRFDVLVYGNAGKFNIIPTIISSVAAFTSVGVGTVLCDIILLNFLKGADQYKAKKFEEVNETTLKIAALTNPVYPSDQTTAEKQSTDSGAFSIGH
Description: In vitro bioactivity evaluation: FLIPR antagonist mode, HEK 293 cells stably transfected with human P2X3 receptor, BZATP agonist.

Where [1] appears, read: 30 mg/kg by gavage, 30 min after administration, coughs within 3 min, ammonia-induced.
[2] abbreviates: 3 mg/kg by gavage, 60 min after administration, coughs within 3 min.
Where [3] appears, read: 10 mg/kg by gavage, 60 min after administration, coughs within 3 min.
[4] abbreviates: 30 mg/kg by gavage, 60 min after administration, coughs within 3 min (Table 5).
The mark [5] stands for this setting: 30 mg/kg by gavage, 60 min after administration, coughs within 3 min (Table 6).
Setting [6] is: 30 mg/kg by gavage, 120 min after administration, coughs within 3 min.

Molecules are shown by their SMILES. Marks after values point to notes of the source that are not given here.

Description for human P2X3 receptor: Cell culture medium: DMEM high glucose; 10% FBS; 1% PenStrep.
The Petri dish was placed in an incubator for 1-3 minutes or until the cells were digested, 3 mL of a complete medium was then added to terminate the digestion, and the cell density was determined by a cell counter. • 2) After centrifugation at 1000 rpm/min for 5 min, the cells were resuspended in a growth medium and the volume of the suspension was adjusted to reach a cell density of 4×10^5 cells/mL (1×10^4 cells/25 μL). • 3) 10 μL of 5× Matrigel was added into a black microplate, and the microplate was placed in an incubator for 15 min. The microplate was removed and invertedly centrifuged at 300 g/min for 30 s to remove the 5× Matrigel.

`COC(=O)[C@@H](C)Cn1c(=O)cc(Nc2ccc(Oc3cnccn3)cc2)n(Cc2ccc(Cl)cc2)c1=O` [Compound 1]: in the data set with SD rats, the “effect on the taste sense” value is “little or no effect on the taste sense” and the “Quinine/tap water (%)” value worked out at 41.48%^Δ. For the same compound, the “cough suppressing effect compared with the positive compound” value with KM mice (30 min after administration) was “stronger than that of the positive compound”. The “Number of Coughs (time)” value in the data set with KM mice (setting [1]) is 15.33** time. This compound yielded an IC50 on human P2X3 receptor of less than 10 nM.

Turning to `C[C@@H](Cn1c(=O)cc(Nc2ccc(Oc3ccccn3)cc2)n(Cc2ccc(Cl)cc2)c1=O)C(=O)NS(C)(=O)=O` [Compound 9], the “effect on the taste sense” value in the data set with SD rats is recorded as “little or no effect on the taste sense”. Further, in the data set with SD rats, the “Quinine/tap water (%)” value is listed as 39.84%^Δ. Moreover, the “reduction in the number of coughs at 3 mg/kg” value (from here on “reduction in the number”) with KM mice (60 min after administration) was “statistically significant (P<0.01) reduction in the number of coughs”. In the data set with KM mice (60 min after administration), the “cough suppressing efficacy at 10 mg/kg” value is reported as “improved cough suppressing efficacy than the positive control drug”. For the same compound, the “duration of the cough suppression action” value in the data set with KM mice is “significantly prolonged compared with that of the compound of Comparative Example 1”. Moreover, the “cough suppressing effect compared with the positive compound” value in the data set on KM mice (30 min after administration) is reported as “stronger than that of the positive compound”. Further, the “Number of Coughs (time)” value is given as 25.37** time in the data set on KM mice (setting [2]); 19.54**^Δ time in the data set on KM mice (setting [3]); 13.62** time with KM mice (setting [1]); 16.33** time with KM mice (setting [4]); 16.33** time in the data set on KM mice (setting [5]); 23.83**^Δ time in the data set on KM mice (setting [6]). Further, the IC50 at human P2X3 receptor is 10.1 to 50 nM.

For `CC(C)(Cn1c(=O)cc(Nc2ccc(Oc3ccccn3)cc2)n(Cc2ccc(Cl)cc2)c1=O)C(=O)NS(C)(=O)=O` [Compound 12], in the data set on SD rats, the “effect on the taste sense” value was “little or no effect on the taste sense”. Also, in the data set with SD rats, the “Quinine/tap water (%)” value is 37.18%^Δ. Further, in the data set on KM mice (60 min after administration), the “cough suppressing efficacy at 10 mg/kg” value is reported as “improved cough suppressing efficacy than the positive control drug”. Further, the “duration of the cough suppression action” value in the data set with KM mice is “significantly prolonged compared with that of the compound of Comparative Example 1”. The “cough suppressing effect compared with the positive compound” value with KM mice (30 min after administration) is reported as “stronger than that of the positive compound”. The “Number of Coughs (time)” value in the data set on KM mice (setting [2]) is on record as 33.17 time; in the data set on KM mice (setting [3]), 21.17**^Δ time; in the data set with KM mice (setting [1]), 15.67** time; with KM mice (setting [4]), 17.17** time; with KM mice (setting [5]), 17.17** time; in the data set with KM mice (setting [6]), 20.17*^Δ time. At human P2X3 receptor, the IC50 is less than 10 nM.

As to `CS(=O)(=O)NC(=O)C1(Cn2c(=O)cc(Nc3ccc(Oc4ccccn4)cc3)n(Cc3ccc(Cl)cc3)c2=O)CC1` [Compound 15], the “effect on the taste sense” value with SD rats was “little or no effect on the taste sense”. Further, the “Quinine/tap water (%)” value in the data set with SD rats was found to be 40.22%^Δ. The “reduction in the number” value with KM mice (60 min after administration) is “statistically significant (P<0.01) reduction in the number of coughs”. In the data set on KM mice (60 min after administration), the “cough suppressing efficacy at 10 mg/kg” value was “improved cough suppressing efficacy than the positive control drug”. The “duration of the cough suppression action” value in the data set with KM mice is on record as “significantly prolonged compared with that of the compound of Comparative Example 1”. The “cough suppressing effect compared with the positive compound” value with KM mice (30 min after administration) is “stronger than that of the positive compound”. In addition, the “Number of Coughs (time)” value with KM mice (setting [2]) is 24.83** time; in the data set on KM mice (setting [3]), 20.83**^Δ time; with KM mice (setting [1]), 18.64** time; in the data set on KM mice (setting [4]) it was 16.33** time; in the data set on KM mice (setting [5]), 16.33** time; in the data set with KM mice (setting [6]), 23.83**^Δ time. Moreover, the IC50 on human P2X3 receptor was in the range of 10.1 to 50 nM.

In the case of `C[C@@H](Cn1c(=O)cc(Nc2ccc(Oc3ncccc3F)cc2)n(Cc2ccc(Cl)cc2)c1=O)C(=O)NS(C)(=O)=O` [Compound 16, (S)-3-(3-(4-chlorobenzyl)-4-(4-(3-(3-fluoropyridin-2-yl)oxyphenyl)amino)-2,6-dioxo-3,6-dihydropyrimidin-1(2H)yl)-2-methyl-N-(methylsulfonyl)propionamide group], the “effect on the taste sense” value in the data set with SD rats was “little or no effect on the taste sense”. In addition, in the data set with SD rats, the “Quinine/tap water (%)” value is 42.53%^Δ. In the data set with KM mice (60 min after administration), the “reduction in the number” value is recorded as “statistically significant (P<0.01) reduction in the number of coughs”. In addition, in the data set with KM mice (60 min after administration), the “cough suppressing efficacy at 10 mg/kg” value is given as “improved cough suppressing efficacy than the positive control drug”. Moreover, the “duration of the cough suppression action” value with KM mice is on record as “significantly prolonged compared with that of the compound of Comparative Example 1”. The “Number of Coughs (time)” value in the data set on KM mice (setting [2]) is 23.81** time; with KM mice (setting [3]), 15.13**^Δ time; in the data set on KM mice (setting [1]), 19.34** time; in the data set with KM mice (setting [4]), 16.11** time; in the data set on KM mice (setting [5]), 16.11** time; in the data set with KM mice (setting [6]) it was 18.13**^Δ time. On human P2X3 receptor, the IC50 was less than 10 nM.

As for `C[C@@H](Cn1c(=O)cc(Nc2ccc(Oc3cccc(F)n3)cc2)n(Cc2ccc(Cl)cc2)c1=O)C(=O)NS(C)(=O)=O` [Compound 24], in the data set with SD rats, the “effect on the taste sense” value was “little or no effect on the taste sense”. Also, in the data set on SD rats, the “Quinine/tap water (%)” value worked out at 39.61%^Δ. Besides, the “reduction in the number” value in the data set on KM mice (60 min after administration) is reported as “statistically significant (P<0.01) reduction in the number of coughs”. The “cough suppressing efficacy at 10 mg/kg” value in the data set with KM mice (60 min after administration) is “improved cough suppressing efficacy than the positive control drug”. Besides, the “duration of the cough suppression action” value with KM mice is “significantly prolonged compared with that of the compound of Comparative Example 1”. The “cough suppressing effect compared with the positive compound” value with KM mice (30 min after administration) was “stronger than that of the positive compound”. For the same compound, the “Number of Coughs (time)” value with KM mice (setting [2]) is given as 25.45** time; with KM mice (setting [3]) it was 24.14**^Δ time; in the data set on KM mice (setting [1]), 17.07** time; with KM mice (setting [4]), 21.33** time; with KM mice (setting [5]), 21.33** time; in the data set with KM mice (setting [6]), 25.14**^Δ time. For the same compound, on human P2X3 receptor, the IC50 is less than 10 nM.
